Drawing on patent publication US11247972B2, “Compositions and methods for treating toxoplasmosis, cryptosporidiosis, and other apicomplexan protozoan related diseases” (University of Washington through its Center for …, priority 2010, dated 2022), this text covers inhibition for 37 compounds.

The structures appear in SMILES notation.

Test [1] deals with PfCDPK4 (Plasmodium falciparum (isolate 3D7), UniProt Q8IBS5). The test can be described thus: biochemical. To be noted: read-out: PfCDPK4 (% inhibition @ 3 uM).
Test [2] addresses PfCDPK1 (Plasmodium falciparum (isolate 3D7), UniProt P62344). The test can be described thus: biochemical. To be noted: read-out: PfCDPK1 (% inhibition @ 3 uM).

Broadly, the inhibition is the percentage by which the read-out fell short of the control. On to `CC(C)n1nc(Cc2cccc3ccccc23)c2c(N)ncnc21` [Compound 3, 1-isopropyl-3-(naphthalen-1-ylmethyl)-1H-pyrazolo[3,4-d]pyrimidin-4-amine], for which the results for the inhibition at 3 µM in test [1] and in test [2] were 76% and 78%, respectively.

For the compound `Cn1nc(Cc2cccc3ccccc23)c2c(N)ncnc21` [Compound 5a, 1-methyl-3-(naphthalen-1-ylmethyl)-1H-pyrazolo[3,4-d]pyrimidin-4-amine], the inhibition at 3 µM in test [1] turned out to be 52%.

On to `C#CCn1nc(Cc2cccc3ccccc23)c2c(N)ncnc21` [Compound 5b, 3-(naphthalen-1-ylmethyl)-1-(prop-2-ynyl)-1H-pyrazolo[3,4-d]pyrimidin-4-amine], for which, in test [1], the inhibition at 3 µM was 20%.

On to `NC(=O)Cn1nc(Cc2cccc3ccccc23)c2c(N)ncnc21` [Compound 5c, 2-(4-amino-3-(naphthalen-1-ylmethyl)-1H-pyrazolo[3,4-d]pyrimidin-1-yl)acetamide], for which the values for the inhibition at 3 µM in test [1] and in test [2] were 23% and 45%, respectively.

For `CC(C)(C)n1nc(Cc2cccc3ccccc23)c2c(N)ncnc21` [Compound 5d, 1-tert-butyl-3-(naphthalen-1-ylmethyl)-1H-pyrazolo[3,4-d]pyrimidin-4-amine], the inhibition at 3 µM came out at 86% in test [1] and 76% in test [2].

Turning to `Nc1ncnc2c1c(Cc1cccc3ccccc13)nn2Cc1ccccc1` [Compound 5e, 1-benzyl-3-(naphthalen-1-ylmethyl)-1H-pyrazolo[3,4-d]pyrimidin-4-amine], the inhibition at 3 µM in test [1] was determined as 5%.

As for `Nc1ncnc2c1c(Cc1cccc3ccccc13)nn2C1CCCCC1` [Compound 5f, 1-cyclohexyl-3-(naphthalen-1-ylmethyl)-1H-pyrazolo[3,4-d]pyrimidin-4-amine], in test [1], the inhibition at 3 µM stood at 15%.

Regarding `Nc1ncnc2c1c(Cc1cccc3ccccc13)nn2C1CCNCC1` [Compound 5g, 3-(naphthalen-1-ylmethyl)-1-(piperidin-4-yl)-1H-pyrazolo[3,4-d]pyrimidin-4-amine], the inhibition at 3 µM in test [1] came out at 75%; in test [2], 56%.

In the case of `Nc1ncnc2c1c(Cc1cccc3ccccc13)nn2CCC1CCNCC1` [Compound 5i, 3-(naphthalen-1-ylmethyl)-1-(2-(piperidin-4-yl)ethyl)-1H-pyrazolo[3,4-d]pyrimidin-4-amine], the inhibition at 3 µM in test [1] was found to be 80%; in test [2] it was 58%.

As for `CC(=O)N1CCC(n2nc(Cc3cccc4ccccc34)c3c(N)ncnc32)CC1` [Compound 5j, 1-(4-(4-amino-3-(naphthalen-1-ylmethyl)-1H-pyrazolo[3,4-d]pyrimidin-1-yl)piperidin-1-yl)ethanone], the inhibition at 3 µM in test [1] worked out at 48%.

For `CC(=O)N1CCC(Cn2nc(Cc3cccc4ccccc34)c3c(N)ncnc32)CC1` [Compound 5k, 1-(4-((4-amino-3-(naphthalen-1-ylmethyl)-1H-pyrazolo[3,4-d]pyrimidin-1-yl)methyl)piperidin-1-yl)ethanone], the figures for the inhibition at 3 µM in test [1] and in test [2] were 28% and 69%, respectively.

Turning to `CC(=O)N1CCC(CCn2nc(Cc3cccc4ccccc34)c3c(N)ncnc32)CC1` [Compound 5l, 1-(4-(2-(4-amino-3-(naphthalen-1-ylmethyl)-1H-pyrazolo[3,4-d]pyrimidin-1-yl)ethyl)piperidin-1-yl)ethanone], the inhibition at 3 µM in test [1] was found to be 41%; in test [2], 51%.

As to `CCN1CCC(n2nc(Cc3cccc4ccccc34)c3c(N)ncnc32)CC1` [Compound 5m, 1-(1-ethylpiperidin-4-yl)-3-(naphthalen-1-ylmethyl)-1H-pyrazolo[3,4-d]pyrimidin-4-amine], the inhibition at 3 µM in test [1] was found to be 42%.

For `CCN1CCC(Cn2nc(Cc3cccc4ccccc34)c3c(N)ncnc32)CC1` [Compound 5n, 1-((1-ethylpiperidin-4-yl)methyl)-3-(naphthalen-1-ylmethyl)-1H-pyrazolo[3,4-d]pyrimidin-4-amine], the figures for the inhibition at 3 µM in test [1] and in test [2] were 27% and 49%, respectively.

For `CCN1CCC(CCn2nc(Cc3cccc4ccccc34)c3c(N)ncnc32)CC1` [Compound 5o, 1-(2-(1-ethylpiperidin-4-yl)ethyl)-3-(naphthalen-1-ylmethyl)-1H-pyrazolo[3,4-d]pyrimidin-4-amine], the inhibition at 3 µM was 37% in test [1] and 71% in test [2].

In the case of `CS(=O)(=O)N1CCC(n2nc(Cc3cccc4ccccc34)c3c(N)ncnc32)CC1` [Compound 5p, 1-(1-(methylsulfonyl)piperidin-4-yl)-3-(naphthalen-1-ylmethyl)-1H-pyrazolo[3,4-d]pyrimidin-4-amine], the inhibition at 3 µM in test [1] is 53%.

Take `CS(=O)(=O)N1CCC(Cn2nc(Cc3cccc4ccccc34)c3c(N)ncnc32)CC1` [Compound 5q, 1-((1-(methylsulfonyl)piperidin-4-yl)methyl)-3-(naphthalen-1-ylmethyl)-1H-pyrazolo[3,4-d]pyrimidin-4-amine]: the inhibition at 3 µM was 15% in test [1] and 78% in test [2].

Consider `CS(=O)(=O)N1CCC(CCn2nc(Cc3cccc4ccccc34)c3c(N)ncnc32)CC1` [Compound 5r, 1-(2-(1-(methylsulfonyl)piperidin-4-yl)ethyl)-3-(naphthalen-1-ylmethyl)-1H-pyrazolo[3,4-d]pyrimidin-4-amine], for which the inhibition at 3 µM in test [1] worked out at 22%; in test [2] it was 55%.

As to `CC(C)n1nc(-c2cccc(OCc3ccccc3)c2)c2c(N)ncnc21` [Compound 7aa, 3-(3-(benzyloxy)phenyl)-1-isopropyl-1H-pyrazolo[3,4-d]pyrimidin-4-amine], the inhibition at 3 µM came out at 18% in test [1] and 75% in test [2].

With `CC(C)n1nc(-c2ccc3c(c2)CCCO3)c2c(N)ncnc21` [Compound 7w, 3-(chroman-6-yl)-1-isopropyl-1H-pyrazolo[3,4-d]pyrimidin-4-amine], the inhibition at 3 µM in test [1] turned out to be 55%.

For `CC(C)n1nc(-c2cccc3c2sc2ccccc23)c2c(N)ncnc21` [Compound 7x, 3-(dibenzo[b,d]thiophen-4-yl)-1-isopropyl-1H-pyrazolo[3,4-d]pyrimidin-4-amine], in test [1], the inhibition at 3 µM was found to be 21%.

With `CC(C)n1nc(-c2cccc(Cc3ccccc3)c2)c2c(N)ncnc21` [Compound 7y, 3-(3-benzylphenyl)-1-isopropyl-1H-pyrazolo[3,4-d]pyrimidin-4-amine], in test [1], the inhibition at 3 µM was 17%.

Turning to `Nc1ncnc2c1c(Cc1cccc3ccccc13)nn2C1CCCC1` [Compound 13, 1-cyclopentyl-3-(naphthalen-1-ylmethyl)-1H-pyrazolo[3,4-d]pyrimidin-4-amine], in test [1], the inhibition at 3 µM was found to be 25%.

Take `CC(C)n1nc(Cc2ccc3ccccc3c2)c2c(N)ncnc21` [Compound 14, 1-isopropyl-3-(naphthalen-2-ylmethyl)-1H-pyrazolo[3,4-d]pyrimidin-4-amine]: in test [1], the inhibition at 3 µM was determined as 13%.

Turning to `Nc1ncnc2c1c(Cc1cccc3ccccc13)nn2C1CCOCC1` [Compound 15, 3-(naphthalen-1-ylmethyl)-1-(tetrahydro-2H-pyran-4-yl)-1H-pyrazolo[3,4-d]pyrimidin-4-amine], the inhibition at 3 µM in test [1] turned out to be 11%.

Take `CC(C)n1nc(-c2cccnc2)c2c(N)ncnc21` [Compound 16, 1-isopropyl-3-(pyridin-3-yl)-1H-pyrazolo[3,4-d]pyrimidin-4-amine]: the inhibition at 3 µM in test [1] is 13%.

As to `CC(C)n1nc(-c2cncnc2)c2c(N)ncnc21` [Compound 18, 1-isopropyl-3-(pyrimidin-5-yl)-1H-pyrazolo[3,4-d]pyrimidin-4-amine], the inhibition at 3 µM in test [1] amounted to 4%.

As for `CC(C)n1nc(-c2ccnc(Cl)c2)c2c(N)ncnc21` [Compound 19, 3-(2-chloropyridin-4-yl)-1-isopropyl-1H-pyrazolo[3,4-d]pyrimidin-4-amine], in test [1], the inhibition at 3 µM was 14%.

Turning to `CC(C)n1nc(-c2ccc3c(ccn3C)c2)c2c(N)ncnc21` [Compound 20, 1-isopropyl-3-(1-methyl-1H-indol-5-yl)-1H-pyrazolo[3,4-d]pyrimidin-4-amine], the inhibition at 3 µM in test [1] was 93%.

As for `CC(C)n1nc(-c2cc3ccccc3[nH]2)c2c(N)ncnc21` [Compound 24, 3-(1H-indol-2-yl)-1-isopropyl-1H-pyrazolo[3,4-d]pyrimidin-4-amine], the inhibition at 3 µM in test [1] turned out to be 93%.

In the case of `COc1ccc2[nH]c(-c3nn(C(C)C)c4ncnc(N)c34)cc2c1` [Compound 27, 1-isopropyl-3-(5-methoxy-1H-indol-2-yl)-1H-pyrazolo[3,4-d]pyrimidin-4-amine], the inhibition at 3 µM in test [1] is 44%.

Take `CC(C)Oc1ccc2cc(-c3nn(CC4CCNCC4)c4ncnc(N)c34)ccc2c1` [Compound 32, 3-(6-isopropoxynaphthalen-2-yl)-1-(piperidin-4-ylmethyl)-1H-pyrazolo[3,4-d]pyrimidin-4-amine]: the inhibition at 3 µM in test [1] came out at 96%.

As to `CCCOc1ccc2cc(-c3nn(CC4CCNCC4)c4ncnc(N)c34)ccc2c1` [Compound 33, 1-(piperidin-4-ylmethyl)-3-(6-propoxynaphthalen-2-yl)-1H-pyrazolo[3,4-d]pyrimidin-4-amine], in test [1], the inhibition at 3 µM worked out at 98%.

For `CCCCOc1ccc2cc(-c3nn(CC4CCNCC4)c4ncnc(N)c34)ccc2c1` [Compound 35, 3-(6-butoxynaphthalen-2-yl)-1-(piperidin-4-ylmethyl)-1H-pyrazolo[3,4-d]pyrimidin-4-amine], the inhibition at 3 µM in test [1] was 99%.

As for `C=CCOc1ccc2cc(-c3nn(CC4CCNCC4)c4ncnc(N)c34)ccc2c1` [Compound 36, 3-(6-(allyloxy)naphthalen-2-yl)-1-(piperidin-4-ylmethyl)-1H-pyrazolo[3,4-d]pyrimidin-4-amine], in test [1], the inhibition at 3 µM was 99%.

Consider `Nc1ncnc2c1c(-c1ccc3cc(OCc4ccccc4Cl)ccc3c1)nn2CC1CCNCC1` [Compound 37, 3-(6-(2-chlorobenzyloxy)naphthalen-2-yl)-1-(piperidin-4-ylmethyl)-1H-pyrazolo[3,4-d]pyrimidin-4-amine], for which the inhibition at 3 µM in test [1] was determined as 96%.

For the compound `Nc1ncnc2c1c(-c1ccc3cc(OCc4cccc(Cl)c4)ccc3c1)nn2CC1CCNCC1` [Compound 38, 3-(6-(3-chlorobenzyloxy)naphthalen-2-yl)-1-(piperidin-4-ylmethyl)-1H-pyrazolo[3,4-d]pyrimidin-4-amine], in test [1], the inhibition at 3 µM is 96%.
